In one series the target is T1, CDK2/CycE (Homo sapiens, UniProt P24941).
T1 construct: GST; purchased Dr. Dieter Marmé, Klinik für Tumorbiologie, Freiburg (external academic supplier); host or cells: baculovirus-infected Sf9 insect cells
The series is described as follows: CDK2/CycE kinase assay. It counts as biochemical. Conditions: recombinant CDK2/CycE, histone IIIS substrate, 0.5 μm ATP. The procedure: Recombinant CDK2- and CycE-GST-fusion proteins, purified from baculovirus-infected insect cells (Sf9), were obtained by Dr. Dieter Marmé, Klinik für Tumorbiologie [Clinic for Tumor Biology], Freiburg. Histone IIIS, which was used as a kinase substrate, was purchased by the Sigma Company.
CDK2/CycE (50 ng/measuring point) was incubated for 15 minutes at 22° C. in the presence of various concentrations of test substances (0 μm, as well as within the range of 0.01-100 μm) in assay buffer [50 mmol of tris/HCl pH 8.0, 10 mmol of MgCl2, 0.1 mmol of Na ortho-vanadate, 1.0 mmol of dithiothreitol, 0.5 μm of adenosine triphosphate (ATP), 10 μg/measuring point of histone IIIS, 0.2 μCi/measuring point of ^33P-gamma ATP, 0.05% NP40, 12.5% dimethyl sulfoxide]. The reaction was stopped by adding EDTA solution (250 mmol, pH 8.0, 14 μl/measuring point).
From each reaction batch, 10 μl was applied to P30 filter strips (Wallac Company), and non-incorporated ^33P-ATP was removed by subjecting the filter strips to three washing cycles for 10 minutes each in 0.5% phosphoric acid. After the filter strips were dried for one hour at 70° C., the filter strips were covered with scintillator strips (MeltiLex™ A, Wallac Company) and baked for one hour at 90° C. The amount of incorporated ^33p (substrate phosphorylation) was determined by scintillation measurement in a gamma-radiation measuring device (Wallac).

A further series deals with MCF-7. The series can be described thus: Proliferation assay, MCF-7. Format: cell-based, human. The settings on record: MCF7, 96 h, 4 days incubation, crystal violet. As for the experimental part:
(§1) Cultivated human tumor cells (as indicated) were flattened out at a density of 5000 cells/measuring point in a 96-well multititer plate in 200 μl of the corresponding growth medium. After 24 hours, the cells of one plate (zero-point plate) were colored with crystal violet (see below), while the medium of the other plates was replaced by fresh culture medium (200 μl), to which the test substances were added in various concentrations (0 μm, as well as in the range of 0.01-30 μm; the final concentration of the solvent dimethyl sulfoxide was 0.5%. The cells were incubated for 4 days in the presence of test substances. The cell proliferation was determined by coloring the cells with crystal violet: the cells were fixed by adding 20 μl/measuring point of a 11% glutaric aldehyde solution for 15 minutes at room temperature. After three washing cycles of the fixed cells with water, the plates were dried at room temperature. The cells were colored by adding 100 μl/measuring point of a 0.1% crystal violet solution (pH was set at 3 by adding acetic acid). After three washing cycles of the colored cells with water, the plates were dried at room temperature. The dye was dissolved by adding 100 μl/measuring point of a 10% acetic acid solution. The extinction was determined by photometry at a wavelength of 595 nm. The change of cell growth, in percent, was calculated by standardization of the measured values to the extinction values of the zero-point plate (=0%) and the extinction of the untreated (0 μm) cells (=100%).

Another series deals with H460. The series can be described thus: Proliferation assay, H460. Format: cell-based. Conditions: Homo sapiens, NCI-H460, 96 h; comparison table; 4 days incubation, crystal violet. The procedure:
as §1, with “After three washing cycles of the colored cells with water, the plates were dried at room temperature. The dye was dissolved by adding 100 μl/measuring point of a 10% acetic acid solution.” left out

The next series has as its system HCT116. The series can be described thus: Proliferation assay, HCT116. Format: cell-based. The settings on record: Homo sapiens, HCT-116, 96 h; comparison table; 4 days incubation, crystal violet. As for the experimental part:
as §1, with “After three washing cycles of the colored cells with water, the plates were dried at room temperature. The dye was dissolved by adding 100 μl/measuring point of a 10% acetic acid solution.” left out

Another series has as its system DU145. The series is described as follows: Proliferation assay, DU145. Format: cell-based. Conditions: Homo sapiens, DU-145, 96 h; comparison table; 4 days incubation, crystal violet. As for the experimental part: as §1, with “After three washing cycles of the colored cells with water, the plates were dried at room temperature. The dye was dissolved by adding 100 μl/measuring point of a 10% acetic acid solution.” left out

Where only a bound is given, the exact number is not on record here.

`CSc1ccc2c(c1)/C(=C1/Nc3ccccc3C1=O)C(=O)N2` [Example 1.0, 5-Methylsulfanyl-indirubin] had a melting point of over 210 °C. Moreover, the half-maximal inhibitory concentration (IC50) on CDK2/CycE (comparison table) was 300 nM. The compound also had an IC50 in the series on MCF-7 (Homo sapiens, comparison table) of 500 nM.
In turn, `C[S+]([O-])c1ccc2c(c1)/C(=C1/Nc3ccccc3C1=O)C(=O)N2` (stereo not drawn) [Example 2.0, 5-Methylsulfinyl-indirubin] came in with a melting point of 284 °C. At CDK2/CycE (comparison table), the IC50 was found to be 80 nM. Also, the half-inhibitory concentration (IC50) with MCF-7 (Homo sapiens, comparison table) amounted to 1500 nM. Moreover, the IC50 with H460 was 4000 nM. Further, in the series with HCT116, the midpoint of inhibition, the IC50, lay at 2500 nM. Moreover, half-maximal inhibition with DU145 (IC50) was put at 6000 nM.
The compound `CSc1ccc2c(c1)/C(=C1/Nc3ccccc3/C1=N\O)C(=O)N2` [Example 4.0, 5-Methylsulfanyl-3′,-hydroyimino-indirubin] came in with a melting point of 156 °C. The 50% inhibitory concentration (IC50) at CDK2/CycE (comparison table) was found to be 20 nM. The same compound showed an IC50 in the series on MCF-7 (Homo sapiens, comparison table) of 700 nM. For the same compound, the IC50 with H460 was 1000 nM. Half-maximal inhibition in the series with HCT116 (IC50) was put at 600 nM. Besides, the IC50 in the series with DU145 amounted to 1000 nM.
For the compound `CSc1ccc2c(c1)/C(=C1/Nc3ccc(NC(C)=O)cc3C1=O)C(=O)N2` [Example 5.0, 5-Methysulfanyl-5′-N-acetylindirubin], the IC50 amounted to 110 nM on CDK2/CycE and 5000 nM in the series on MCF-7 (human tumor cells).
As to `CSc1ccc2c(c1)/C(=C1/Nc3ccc(OCc4ccccc4)cc3C1=O)C(=O)N2` [Example 5.1], the IC50 on CDK2/CycE was found to be 5000 nM.

As a reminder, the IC50 is the concentration at which inhibition is half-maximal. One may read the melting point as the temperature of the solid-liquid transition.

The values are drawn from US20020107404A1, “Sulfur-containing indirubin derivatives, their production and use” (Schering AG, priority 2000, published 2002).
